Data taken from ChEMBL document CHEMBL2417375 (Bioorg Med Chem Lett, 2013).

Key:
[1] = molecular target: Mu-type opioid receptor (Mus musculus) (UniProt P42866); experiment: Agonist activity at mouse mu opioid receptor expressed in CHO cells assessed as stimulation of [35S]-GTPgammaS binding after 1.5 hrs relative to DAMGO; format: functional, cell-based
Mu-type opioid receptor [2] = molecular target: T1, Mu-type opioid receptor (Mus musculus, UniProt P42866); experiment: Agonist activity at mouse mu opioid receptor expressed in CHO cells assessed as stimulation of [35S]-GTPgammaS binding after 1.5 hrs; format: functional, cell-based
T1 sequence (P42866 whole entry): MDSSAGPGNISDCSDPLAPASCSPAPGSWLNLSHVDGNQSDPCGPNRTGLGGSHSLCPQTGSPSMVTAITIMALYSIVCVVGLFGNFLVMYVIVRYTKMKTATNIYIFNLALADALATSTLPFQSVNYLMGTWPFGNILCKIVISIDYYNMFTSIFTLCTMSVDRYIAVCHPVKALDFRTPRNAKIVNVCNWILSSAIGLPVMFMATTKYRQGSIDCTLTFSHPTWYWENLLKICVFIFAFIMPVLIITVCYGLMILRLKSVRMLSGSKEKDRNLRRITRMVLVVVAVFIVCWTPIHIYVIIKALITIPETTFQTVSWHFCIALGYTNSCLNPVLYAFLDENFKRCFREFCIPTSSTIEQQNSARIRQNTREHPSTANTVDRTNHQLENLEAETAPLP

Mus musculus [3] = species: Mus musculus; experiment: Selectivity ratio of Ki for mouse delta opioid receptor to Ki for mouse mu opioid receptor
Mus musculus [4] = species: Mus musculus; experiment: Selectivity ratio of Ki for mouse kappa opioid receptor to Ki for mouse mu opioid receptor
[5] = molecular target: Delta-type opioid receptor (Mus musculus, UniProt P32300); experiment: Displacement of [3H]-naltrindole from mouse delta opioid receptor expressed in CHO cells after 1.5 hrs; format: cell-based
Chain of Delta-type opioid receptor (P32300 whole entry): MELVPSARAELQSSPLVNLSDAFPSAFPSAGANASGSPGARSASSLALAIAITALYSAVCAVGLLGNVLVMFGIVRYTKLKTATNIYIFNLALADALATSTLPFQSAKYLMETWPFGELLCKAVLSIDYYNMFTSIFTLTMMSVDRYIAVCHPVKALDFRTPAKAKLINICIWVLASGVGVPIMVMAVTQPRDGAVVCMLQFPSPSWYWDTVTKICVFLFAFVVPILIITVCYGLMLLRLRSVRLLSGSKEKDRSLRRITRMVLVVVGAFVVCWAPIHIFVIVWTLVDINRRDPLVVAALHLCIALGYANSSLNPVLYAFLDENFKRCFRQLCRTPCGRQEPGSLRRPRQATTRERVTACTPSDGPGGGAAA

[6] = molecular target: Kappa-type opioid receptor (Mus musculus, UniProt P33534); experiment: Displacement of [3H]-diprenorphine from mouse kappa opioid receptor expressed in CHO cells after 1.5 hrs; format: cell-based
Chain of Kappa-type opioid receptor (P33534 whole entry): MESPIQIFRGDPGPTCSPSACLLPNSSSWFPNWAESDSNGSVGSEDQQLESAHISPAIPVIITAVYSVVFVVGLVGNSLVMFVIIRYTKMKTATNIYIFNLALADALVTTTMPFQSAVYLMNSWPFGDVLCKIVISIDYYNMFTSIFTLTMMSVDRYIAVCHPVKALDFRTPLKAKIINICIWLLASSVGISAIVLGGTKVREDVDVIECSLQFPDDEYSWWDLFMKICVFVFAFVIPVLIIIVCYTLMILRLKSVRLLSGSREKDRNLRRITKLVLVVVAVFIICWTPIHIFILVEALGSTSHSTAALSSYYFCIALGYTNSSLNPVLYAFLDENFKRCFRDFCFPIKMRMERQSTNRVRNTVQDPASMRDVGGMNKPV

Mu-type opioid receptor [7] = molecular target: T1, Mu-type opioid receptor; experiment: Displacement of [3H]-naloxone from mouse mu opioid receptor expressed in CHO cells after 1.5 hrs; format: cell-based

Chain of Mu-type opioid receptor (Mus musculus) (P42866 whole entry): as the sequence (P42866 whole entry) above

| SMILES | Emax [1] [%] | EC50 (Mu-type opioid receptor [2]) [nM] | Ratio Ki (Mus musculus [3]) | Ratio Ki (Mus musculus [4]) | Ki [5] [nM] | Ki [6] [nM] | Ki (Mu-type opioid receptor [7]) [nM] |
| --- | --- | --- | --- | --- | --- | --- | --- |
| O=C(CCc1cc2ccccc2cn1)N[C@H]1CC[C@@]2(O)[C@H]3Cc4ccc(O)c5c4[C@@]2(CCN3CC2CC2)[C@H]1O5 | 27.4 | 1.14 | 12 | 2.4 | 8.4 | 1.61 | 0.68 |
| O=C(N[C@H]1CC[C@@]2(O)[C@H]3Cc4ccc(O)c5c4[C@@]2(CCN3CC2CC2)[C@H]1O5)c1cc2ccccc2cn1 | – | – | – | – | 162 | – | – |
| CN1Cc2ccccc2C[C@H]1C(=O)N[C@H]1CC[C@@]2(O)[C@H]3Cc4ccc(O)c5c4[C@@]2(CCN3CC2CC2)[C@H]1O5 | 24.8 | 19.4 | 3.2 | 2.3 | 9.3 | 6.76 | 2.9 |
| Cc1nc(C(=O)N[C@H]2CC[C@@]3(O)[C@H]4Cc5ccc(O)c6c5[C@@]3(CCN4CC3CC3)[C@H]2O6)cc2ccccc12 | 22.2 | 7.2 | – | – | 117 | 29.1 | 2.1 |
| N#Cc1nc(C(=O)N[C@H]2CC[C@@]3(O)[C@H]4Cc5ccc(O)c6c5[C@@]3(CCN4CC3CC3)[C@H]2O6)cc2ccccc12 | 37.5 | 3.32 | 131 | 10 | 130 | 10.1 | 0.99 |
| O=C(N[C@H]1CC[C@@]2(O)[C@H]3Cc4ccc(O)c5c4[C@@]2(CCN3CC2CC2)[C@H]1O5)c1nc(Cl)c2ccccc2c1O | 19.8 | 1.23 | 24 | 25 | 17.4 | 18.3 | 0.73 |
| O=C(Cc1cc2ccccc2cn1)N[C@H]1CC[C@@]2(O)[C@H]3Cc4ccc(O)c5c4[C@@]2(CCN3CC2CC2)[C@H]1O5 | 18.6 | 4.6 | 10 | 0.9 | 12.5 | 1.1 | 1.2 |
| O=C(N[C@H]1CC[C@@]2(O)[C@H]3Cc4ccc(O)c5c4[C@@]2(CCN3CC2CC2)[C@H]1O5)c1cc2ccccc2c(Cl)n1 | – | – | – | – | 79.8 | 10.8 | – |
| O=C(CNC(=O)c1cc2ccccc2cn1)N[C@H]1CC[C@@]2(O)[C@H]3Cc4ccc(O)c5c4[C@@]2(CCN3CC2CC2)[C@H]1O5 | 13.9 | 14.1 | 3.4 | 0.2 | 9.2 | 0.61 | 2.7 |
| O=C(N[C@H]1CC[C@@]2(O)[C@H]3Cc4ccc(O)c5c4[C@@]2(CCN3CC2CC2)[C@H]1O5)c1ncc2ccccc2c1O | 20.5 | 1.06 | – | – | 32.8 | 4 | 0.45 |
| COc1c(C(=O)N[C@H]2CC[C@@]3(O)[C@H]4Cc5ccc(O)c6c5[C@@]3(CCN4CC3CC3)[C@H]2O6)nc(Cl)c2ccccc12 | – | 1.74 | – | – | 33.9 | 22.2 | – |
| O=C(N[C@H]1CC[C@@]2(O)[C@H]3Cc4ccc(O)c5c4[C@@]2(CCN3CC2CC2)[C@H]1O5)c1ncc2ccccc2n1 | 21.6 | 6 | 71 | 4.6 | 78.8 | 5.1 | 1.11 |
